The source of these data is patent US11033539B2, “Compounds of formulas (VII), (VIII), (IX), (XI), (XII), (XIII), and (XIV) as muscarinic receptor 4(M4) antagonists for treating neurological diseases” (Neurocrine Biosciences, Inc., priority 2015, dated 2021).

One assay concerns the target human M1 receptor (Homo sapiens (Human), UniProt P11229). The assay is described as follows: Radioligand (tritiated N-methylscopolamine) binding assay, M1. The following applies: CHO cell membranes expressing human M1; 1.5 nM tritiated N-methylscopolamine; 90 min, 37° C.; read-out: Ki against M1 receptor (Table 21, M1). The gist of the method:
(§1)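 CHO membranes; 1.5 nM radioligand; 12-point compound dose-response, 10 μM to […]; HEPES/NaCl/MgCl2/EDTA buffer pH 7.4; 90 min, 37 °C. PEI-treated glass fiber filtration, radioactivity counting. Ki from inhibition of binding.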

The target of a further assay is human M2 receptor (Homo sapiens (Human), UniProt P08172). In words: Radioligand (tritiated N-methylscopolamine) binding assay, M2. The following applies: CHO cell membranes expressing human M2; 1.5 nM tritiated N-methylscopolamine; 90 min, 37° C.; read-out: Ki against M2 receptor (Table 21, M2). An outline of the steps: as §1
A further assay has as its target human M3 receptor (Homo sapiens (Human), UniProt P20309). In words: Radioligand (tritiated N-methylscopolamine) binding assay, M3. The following applies: CHO cell membranes expressing human M3; 1.5 nM tritiated N-methylscopolamine; 90 min, 37° C.; read-out: Ki against M3 receptor (Table 21, M3). An outline of the steps:
as §1

Another assay deals with human M4 receptor (Homo sapiens (Human), UniProt P08173). In words: Radioligand (tritiated N-methylscopolamine) binding assay, M4. The following applies: Ki against the M4 receptor; membranes from CHO cells expressing human M4; tritiated N-methylscopolamine 1.5 nM; read-out: Ki. An outline of the steps: as §1
The next assay deals with human M5 receptor (Homo sapiens (Human), UniProt P08912). The assay is described as follows: Radioligand (tritiated N-methylscopolamine) binding assay, M5. To be noted: CHO cell membranes expressing human M5; 1.5 nM tritiated N-methylscopolamine; 90 min, 37° C.; read-out: Ki against M5 receptor (Table 21, M5). The gist of the method: as §1
Sequence of human M5 receptor (P08912 whole entry): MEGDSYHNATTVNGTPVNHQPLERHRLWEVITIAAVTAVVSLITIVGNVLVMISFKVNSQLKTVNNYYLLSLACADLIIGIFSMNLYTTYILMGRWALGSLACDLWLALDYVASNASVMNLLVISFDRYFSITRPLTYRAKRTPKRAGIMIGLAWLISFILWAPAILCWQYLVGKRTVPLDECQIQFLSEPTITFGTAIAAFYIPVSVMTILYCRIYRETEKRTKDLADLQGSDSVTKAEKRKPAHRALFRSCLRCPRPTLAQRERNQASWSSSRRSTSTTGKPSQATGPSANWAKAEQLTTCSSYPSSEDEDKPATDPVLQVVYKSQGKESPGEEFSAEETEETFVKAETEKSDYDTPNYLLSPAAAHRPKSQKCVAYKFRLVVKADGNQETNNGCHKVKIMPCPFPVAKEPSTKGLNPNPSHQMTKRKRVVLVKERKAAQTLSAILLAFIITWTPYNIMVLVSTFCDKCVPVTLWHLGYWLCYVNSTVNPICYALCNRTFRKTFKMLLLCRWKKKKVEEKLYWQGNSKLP

Sequence of human M1 receptor (P11229 whole entry): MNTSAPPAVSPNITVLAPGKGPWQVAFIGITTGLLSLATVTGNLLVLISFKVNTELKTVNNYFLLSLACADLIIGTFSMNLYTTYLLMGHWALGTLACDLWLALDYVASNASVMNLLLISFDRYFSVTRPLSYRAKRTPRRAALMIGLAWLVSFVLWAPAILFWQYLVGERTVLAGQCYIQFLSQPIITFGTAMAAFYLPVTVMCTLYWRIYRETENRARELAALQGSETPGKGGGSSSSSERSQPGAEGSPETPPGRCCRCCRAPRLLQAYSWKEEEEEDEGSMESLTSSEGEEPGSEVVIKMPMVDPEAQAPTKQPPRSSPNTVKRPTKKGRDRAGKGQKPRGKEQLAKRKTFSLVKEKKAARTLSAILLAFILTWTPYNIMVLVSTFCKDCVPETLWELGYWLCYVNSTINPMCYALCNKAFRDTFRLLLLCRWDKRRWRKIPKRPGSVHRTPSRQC
Sequence of human M2 receptor (P08172 whole entry): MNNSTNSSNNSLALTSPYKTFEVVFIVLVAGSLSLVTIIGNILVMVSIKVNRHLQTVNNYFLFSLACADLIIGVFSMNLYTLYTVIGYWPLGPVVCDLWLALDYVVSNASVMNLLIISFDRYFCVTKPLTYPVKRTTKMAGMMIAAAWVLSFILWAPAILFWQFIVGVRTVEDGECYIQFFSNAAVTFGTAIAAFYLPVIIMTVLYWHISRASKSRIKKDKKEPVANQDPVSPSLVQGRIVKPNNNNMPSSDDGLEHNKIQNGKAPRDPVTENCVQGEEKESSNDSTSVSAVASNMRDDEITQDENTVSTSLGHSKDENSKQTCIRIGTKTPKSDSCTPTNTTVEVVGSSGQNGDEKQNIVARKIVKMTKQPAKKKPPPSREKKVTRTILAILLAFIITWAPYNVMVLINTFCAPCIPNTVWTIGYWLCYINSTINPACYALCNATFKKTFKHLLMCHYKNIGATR
Sequence of human M3 receptor (P20309 whole entry): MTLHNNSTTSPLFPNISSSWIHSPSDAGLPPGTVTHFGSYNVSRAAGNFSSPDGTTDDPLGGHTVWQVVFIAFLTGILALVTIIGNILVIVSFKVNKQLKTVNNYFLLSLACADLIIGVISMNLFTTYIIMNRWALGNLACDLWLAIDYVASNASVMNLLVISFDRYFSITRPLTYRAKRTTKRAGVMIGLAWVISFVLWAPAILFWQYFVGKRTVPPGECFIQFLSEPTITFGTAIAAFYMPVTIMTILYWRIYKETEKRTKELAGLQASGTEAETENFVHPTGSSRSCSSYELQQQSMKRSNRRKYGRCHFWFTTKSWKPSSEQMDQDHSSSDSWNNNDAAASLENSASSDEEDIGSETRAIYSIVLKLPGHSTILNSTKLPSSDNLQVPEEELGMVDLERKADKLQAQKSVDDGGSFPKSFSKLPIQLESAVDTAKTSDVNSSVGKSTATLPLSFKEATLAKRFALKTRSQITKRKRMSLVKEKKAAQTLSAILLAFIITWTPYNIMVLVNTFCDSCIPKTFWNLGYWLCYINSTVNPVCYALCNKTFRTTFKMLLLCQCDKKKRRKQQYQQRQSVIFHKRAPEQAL
Sequence of human M4 receptor (P08173 whole entry): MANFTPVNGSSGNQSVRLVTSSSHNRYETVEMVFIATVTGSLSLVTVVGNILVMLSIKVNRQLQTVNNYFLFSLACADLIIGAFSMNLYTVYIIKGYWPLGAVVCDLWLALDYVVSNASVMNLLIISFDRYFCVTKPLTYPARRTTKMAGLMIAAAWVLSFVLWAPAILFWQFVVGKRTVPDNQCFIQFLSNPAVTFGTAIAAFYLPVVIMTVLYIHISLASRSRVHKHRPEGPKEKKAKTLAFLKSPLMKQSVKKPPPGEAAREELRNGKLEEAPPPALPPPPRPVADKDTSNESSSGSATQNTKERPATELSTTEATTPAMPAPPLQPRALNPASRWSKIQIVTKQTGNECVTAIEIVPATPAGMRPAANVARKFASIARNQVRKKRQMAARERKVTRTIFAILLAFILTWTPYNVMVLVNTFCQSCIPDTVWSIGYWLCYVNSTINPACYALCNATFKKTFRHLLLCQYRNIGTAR

As usually defined, the Ki is a measure of affinity in units of concentration, obtained from inhibition or displacement. Turning to `O=C(NCCC1CCN(Cc2ccccc2)CC1)C1CCN(c2cccc(OC(F)(F)F)c2)CC1` [10-19, N-[2-(1-benzylpiperidin-4-yl)ethyl]-1-[3-(trifluoromethoxy)phenyl]piperidine-4-carboxamide], the Ki on human M1 receptor was 100 to 1000 nM; at human M2 receptor, 100 to 1000 nM; on human M3 receptor, greater than 1000 nM; on human M4 receptor, less than 10 nM; at human M5 receptor, greater than 1000 nM.
Regarding `O=C(NCCC1CCN(Cc2ccccc2)CC1)C1CCN(c2ccc(OC(F)(F)F)cc2)CC1` [9-1, N-[2-(1-benzylpiperidin-4-yl)ethyl]-1-[4-(trifluoromethoxy)phenyl]piperidine-4-carboxamide], the Ki on human M1 receptor is greater than 1000 nM; on human M2 receptor it was 100 to 1000 nM; at human M3 receptor, greater than 1000 nM; at human M4 receptor, less than 10 nM; at human M5 receptor, greater than 1000 nM.
As to `C[C@@H]1CN(c2cc(F)c(F)c(F)c2)CCN1C(=O)NCCC1CCN(Cc2ccccc2)CC1CO` (stereo partly drawn) [3-17, (2R)-N-{2-[1-benzyl-3-(hydroxymethyl)piperidin-4-yl]ethyl}-2-methyl-4-(3,4,5-trifluorophenyl)piperazine-1-carboxamide], the Ki at human M1 receptor is greater than 1000 nM; at human M2 receptor it was 100 to 1000 nM; on human M3 receptor it was greater than 1000 nM; on human M4 receptor it was less than 10 nM; at human M5 receptor, greater than 1000 nM.
Turning to `O=C(NCCC1CCN(Cc2ccccc2)CC1)C1CCN(c2cc(F)c(F)c(F)c2)CC1` [10-7, N-[2-(1-benzylpiperidin-4-yl)ethyl]-1-(3,4,5-trifluorophenyl)piperidine-4-carboxamide], the Ki on human M1 receptor is greater than 1000 nM; on human M2 receptor it was 100 to 1000 nM; at human M3 receptor it was greater than 1000 nM; on human M4 receptor it was less than 10 nM; at human M5 receptor, greater than 1000 nM.
Turning to `COc1ccc(N2C[C@@H](C)N(C(=O)NCCC3CCN(Cc4ccccc4)CC3)[C@@H](C)C2)cc1C#N` [22-24], the Ki on human M1 receptor was 100 to 1000 nM; at human M2 receptor it was 10 to 100 nM; at human M3 receptor, greater than 1000 nM; at human M4 receptor, less than 10 nM; at human M5 receptor it was greater than 1000 nM.
Regarding `C[C@@H]1CN(C(=O)NCCC2CCN(Cc3ccccc3)CC2)CCN1c1ccc(OC(F)(F)F)cc1` [4-18, (3R)-N-[2-(1-benzylpiperidin-4-yl)ethyl]-3-methyl-4-[4-(trifluoromethoxy)phenyl]piperazine-1-carboxamide], the Ki was greater than 1000 nM on human M1 receptor; 100 to 1000 nM at human M2 receptor; greater than 1000 nM at human M3 receptor; less than 10 nM at human M4 receptor; greater than 1000 nM at human M5 receptor.
For `C[C@@H]1CN(c2ncc(Cl)cn2)CCN1C(=O)NCCC1CCN(Cc2ccccc2)CC1` [5-22, (2R)-N-[2-(1-benzylpiperidin-4-yl)ethyl]-4-(5-chloropyrimidin-2-yl)-2-methylpiperazine-1-carboxamide], the Ki was 100 to 1000 nM at human M1 receptor; 10 to 100 nM at human M2 receptor; greater than 1000 nM on human M3 receptor; less than 10 nM at human M4 receptor; greater than 1000 nM on human M5 receptor.
As to `C[C@@H]1CN(c2ccc(F)c(C(F)F)c2)CCN1C(=O)NCCC1CCN(Cc2ccccc2)CC1` [7-9, (2R)-N-[2-(1-benzylpiperidin-4-yl)ethyl]-4-[3-(difluoromethyl)-4-fluorophenyl]-2-methylpiperazine-1-carboxamide], the inhibition constant (Ki) is 100 to 1000 nM on human M1 receptor; 100 to 1000 nM on human M2 receptor; greater than 1000 nM on human M3 receptor; less than 10 nM on human M4 receptor; greater than 1000 nM at human M5 receptor.
With `O=C(NCCC1CCN(Cc2ccccc2)CC1)c1ccc(-c2ccc(OC(F)(F)F)cc2)cc1` [9-7, N-[2-(1-benzylpiperidin-4-yl)ethyl]-4-[4-(trifluoromethoxy)phenyl]benzamide], the Ki is 100 to 1000 nM on human M1 receptor; 100 to 1000 nM at human M2 receptor; greater than 1000 nM at human M3 receptor; less than 10 nM on human M4 receptor; greater than 1000 nM at human M5 receptor.
For the compound `C[C@H]1CN(c2ncc(C(F)(F)F)cn2)CCC1C(=O)NCCC1CCN(Cc2ccccc2)CC1` (stereo partly drawn) [20-2, (3R)-N-[2-(1-benzylpiperidin-4-yl)ethyl]-3-methyl-1-[5-(trifluoromethyl)pyrimidin-2-yl]piperidine-4-carboxamide], the Ki at human M1 receptor is 10 to 100 nM; on human M2 receptor it was 10 to 100 nM; at human M3 receptor it was 10 to 100 nM; on human M4 receptor it was less than 10 nM; at human M5 receptor it was 100 to 1000 nM.
Take `N#Cc1cc(N2CCC(C(=O)NCCC3CCN(Cc4ccccc4)CC3)CC2)ccc1F` [9-73, N-[2-(1-benzylpiperidin-4-yl)ethyl]-1-(3-cyano-4-fluorophenyl)piperidine-4-carboxamide]: the Ki on human M1 receptor was greater than 1000 nM; on human M2 receptor it was 100 to 1000 nM; at human M3 receptor, greater than 1000 nM; on human M4 receptor, less than 10 nM; on human M5 receptor, greater than 1000 nM.
`CC1CN(c2ccc(OC(F)(F)F)cc2)CCC1C(=O)NCCC1CCN(Cc2ccccc2)CC1` (stereo not shown) [10-6, N-[2-(1-benzylpiperidin-4-yl)ethyl]-3-methyl-1-[4-(trifluoromethoxy)phenyl]piperidine-4-carboxamide]: the Ki on human M1 receptor is 100 to 1000 nM; at human M2 receptor, 100 to 1000 nM; at human M3 receptor it was greater than 1000 nM; at human M4 receptor it was less than 10 nM; at human M5 receptor, greater than 1000 nM.
With `O=C(NCCC1CCN(Cc2ccccc2)CC1)C1CCN(c2ccc(C(F)(F)F)cc2)CC1` [10-9, N-[2-(1-benzylpiperidin-4-yl)ethyl]-1-[4-(trifluoromethyl)phenyl]piperidine-4-carboxamide], the Ki on human M1 receptor was greater than 1000 nM; at human M2 receptor it was 100 to 1000 nM; on human M3 receptor it was greater than 1000 nM; on human M4 receptor, less than 10 nM; at human M5 receptor it was greater than 1000 nM.
In the case of `C[C@@H]1CN(c2ncc(C(F)(F)F)c(N)n2)CCN1C(=O)NCCC1CCN(Cc2ccccc2)CC1` [5-29, (2R)-4-[4-amino-5-(trifluoromethyl)pyrimidin-2-yl]-N-[2-(1-benzylpiperidin-4-yl)ethyl]-2-methylpiperazine-1-carboxamide], the inhibitory constant (Ki) at human M1 receptor is greater than 1000 nM; on human M2 receptor, 100 to 1000 nM; at human M3 receptor it was greater than 1000 nM; on human M4 receptor, less than 10 nM; at human M5 receptor, greater than 1000 nM.
For the compound `C[C@@H]1CN(c2ncc(C(F)(F)F)cn2)CCN1C(=O)NCCC1CCN(Cc2cccc(C#N)c2)CC1` [6-40, (2R)-N-(2-{1-[(3-cyanophenyl)methyl]piperidin-4-yl}ethyl)-2-methyl-4-[5-(trifluoromethyl)pyrimidin-2-yl]piperazine-1-carboxamide], the Ki was 100 to 1000 nM at human M1 receptor; 10 to 100 nM at human M2 receptor; 100 to 1000 nM on human M3 receptor; less than 10 nM on human M4 receptor; greater than 1000 nM at human M5 receptor.
Regarding `Cc1c(C(=O)NCCC2CCN(Cc3ccccc3)CC2)cnc2cc(-c3ccc(F)cc3)nn12` [18-4], the Ki on human M1 receptor was 100 to 1000 nM; on human M2 receptor, 100 to 1000 nM; at human M3 receptor it was greater than 1000 nM; on human M4 receptor, less than 10 nM; on human M5 receptor, greater than 1000 nM.
For the compound `C[C@@H]1CN(c2cc(F)c(F)c(F)c2)CCN1C(=O)NCCC1CCN(Cc2ccc(F)cc2)CC1` [6-4, (2R)-N-(2-{1-[(4-fluorophenyl)methyl]piperidin-4-yl}ethyl)-2-methyl-4-(3,4,5-trifluorophenyl)piperazine-1-carboxamide], the Ki on human M1 receptor is 100 to 1000 nM; at human M2 receptor, 100 to 1000 nM; at human M3 receptor, greater than 1000 nM; on human M4 receptor, less than 10 nM; at human M5 receptor it was greater than 1000 nM.
